In patent publication US7820795B2, “Lactobacillus fermentum N-desoxyribosyl transferases and the use thereof for enzymatic synthesis of 2′, 3′—didesoxynucleosides and 2′,3′- didehydro-2′,3′- didesoxynucleosides” (Institut Pasteur, priority 2004, dated 2010):

Legend:
[1] = biological target: T1, Lactobacillus fermentum N-deoxyribosyl transferase (NTD, LF), native/wild type, SEQ ID No. 2 (Limosilactobacillus fermentum, UniProt Q6YNI5); experiment: Enzymatic activity tests (dT+C, ddT+C and d4T+C reactions), native enzyme LF; assay type: biochemical; conditions: deoxyribosyl donor + C (cytosine)
T1 construct: crude extract or purified
T1 sequence (Q6YNI5 1-168): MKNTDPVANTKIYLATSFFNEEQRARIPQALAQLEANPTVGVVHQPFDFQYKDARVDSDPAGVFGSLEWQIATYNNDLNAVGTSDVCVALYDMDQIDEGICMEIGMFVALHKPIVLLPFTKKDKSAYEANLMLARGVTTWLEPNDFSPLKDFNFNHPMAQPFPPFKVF
Protocol: 50 μl of enzymatic extract is added to 200 μl of 100 mM citrate buffer, pH 6.44, in the presence of 3 mM ddU or dU final and of 1 mM C final for the strain PAK9, the whole is incubated at 37° C. The progress of the reaction is monitored by TLC (silica; eluent: MeOH—CH2Cl2 (20/80)). […] The disappearance of the substrates and the formation of the products were also quantified by HPLC analysis. The different products are separated by analytical HPLC with a reversed-phase column (100-5C18) using a flow rate of 1 ml/min and a linear gradient of 5-25% CH3CN in a 10 mM triethyl ammonium acetate buffer at pH 7.5 for 20 minutes.
were used as primer in an amplification reaction under standard conditions using the ntd gene of L. fermentum cloned in pSU19 (pLF6) as DNA matrix. The amplification product was digested by the restriction enzymes Nde1 and BamH1 for 2 hours at 37° C., purified on agarose gel and inserted into the plasmid pET24a digested by the same enzymes then the ligation mixture is used to transform the strain β 2033. The plasmid DNA from the colonies was prepared and digested by the enzymes Nde1 and BamH1. […]
(§1) The cells are then centrifuged for 15′ at 4000 rpm at 4° C., washed in 50 ml of phosphate buffer then the pellet obtained after centrifugation is preserved overnight at −20° C. […] The fractions are then analyzed by SDS-PAGE gel and the enzymatic activity determined. […] The protein concentration is determined by measuring the OD at 280 nm. […]
The enzymatic activities of the native and mutant N-deoxyribosyl transferases of L. leichmannii (LL and LL G9S) and of L. fermentum (LF and LFA15T) in the exchange reactions dT+C ? dC+T, ddT+C ? ddC+T and d4T+C ? d4C+T were evaluated starting from crude extracts or purified proteins.
These different values were measured according to the protocol described in the literature [P A Kaminski (2002) “Functional cloning, heterologous expression and purification of two different N-deoxyribosyl transferases from Lactobacillus helveticus” J. Biol. Chem; vol. […]

[2] = biological target: T2, Lactobacillus fermentum N-deoxyribosyl transferase (NTD) variant LFA15T, mutation A15T, SEQ ID No. 4 (Limosilactobacillus fermentum, UniProt Q6YNI5, A15T); experiment: Enzymatic activity tests (dT+C, ddT+C and d4T+C reactions), mutated enzyme LFA15T; assay type: biochemical; conditions: mutant LFA15T; deoxyribosyl donor + C (cytosine)
T2 construct: crude extract or purified
T2 sequence (Q6YNI5 1-168 A15T): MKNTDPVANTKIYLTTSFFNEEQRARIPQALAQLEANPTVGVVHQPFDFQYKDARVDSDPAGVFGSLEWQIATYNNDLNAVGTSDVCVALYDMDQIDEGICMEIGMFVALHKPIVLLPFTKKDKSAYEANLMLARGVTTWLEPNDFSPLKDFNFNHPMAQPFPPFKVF
Protocol: The sequencing of the plasmids present in the selected transformants of PAK 9 made it possible to identify a mutation in the sequence (ntd) having the effect of substituting a residue T for the residue A in position 15 in the corresponding protein sequence (SEQ ID No. 2) (mutation called A15T).
50 μl of enzymatic extract is added to 200 μl of 100 mM citrate buffer, pH 6.44, in the presence of 3 mM ddU or dU final and of 1 mM C final for the strain PAK9, the whole is incubated at 37° C. The progress of the reaction is monitored by TLC (silica; eluent: MeOH—CH2Cl2 (20/80)). […] The disappearance of the substrates and the formation of the products were also quantified by HPLC analysis. […]
as §1
The enzymatic activities of the native and mutant N-deoxyribosyl transferases of L. leichmannii (LL and LL G9S) and of L. fermentum (LF and LFA15T) in the exchange reactions dT+C ? dC+T, ddT+C ? ddC+T and d4T+C ? d4C+T were evaluated starting from crude extracts or purified proteins. […]

[3] = test system: HIV (human immunodeficiency virus); conditions: cited from earlier work

Cc1cn([C@H]2CC[C@@H](CO)O2)c(=O)[nH]c1=O [ddT] gave a Kcat [1] of 0.038 µmol/s/µg and a Kcat [2] of 0.156 µmol/s/µg.

In the case of OC[C@@H]1CC[C@H](n2cnc3c(O)ncnc32)O1 [ddl, 2′,3′-dideoxyinosine], the “inhibition of replication of HIV” value [3] is listed as “effectively inhibit the replication of HIV”.
